Reference: US20090220612A1, “HOLLOW-FIBRE-BASED BIOCOMPATIBLE DRUG DELIVERY DEVICE WITH ONE OR MORE LAYERS” (priority 2005, published 2009)

Assay: Polymer degradation and in vitro 5-FU release from hollow fibres in PBS pH 7.4
Assay type: physicochemical
Settings: FIG. 30
Method: 0.07 g of each hollow fibre was weighed and immersed in 20 ml of de-ionised water in a screw-topped bottle. These were then placed on an orbital shaker maintained at a temperature of 37° C. The pH of the degradation medium was measured every two days to monitor the rate of generation of acidic byproducts. A Jenway (Model 3051) pH meter was used for this purpose.
In vitro drug release studies were carried out in phosphate buffer saline (PBS) at both room temperature (˜25° C.) and 37° C. PBS solution was applied to keep the degrading system at a constant pH 7.4 value. Every type of polymer fibre was cut into 10 pieces, with 5 cm each. At room temperature, each fibre piece was first sealed at one end with bio-adhesive, and was injected with liquid 5-FU with a syringe pump from the other open end before it was sealed. […] The amount of drug release was measured every 24 hours within the 3 months. The quantitative measurement of the amount of drug released was measured with a UV Spectrometer. A calibration curve was performed as the concentration versus absorbance for the drug in buffer (wavelength of absorption, □=266 nm (5-FU) and λ=298 nm (cisplatin and carboplatin) or atomic absorption spectroscopy) which was plotted in a logarithmic scale gave a straight line. […] The absorbance of the drug was noted. […]

O=c1[nH]cc(F)c(=O)[nH]1 [5-FU, fluorouracil]
effect on degradation and drug release rate of polymer hollow fibres: accelerates the degradation and drug release rate
